Reference: PubChem BioAssay AID651703 (Broad Institute, 2012)

biological target: Transforming acidic coiled-coil-containing protein 3 (Homo sapiens) (UniProt Q9Y6A5); assay: inhibition of ARNT PAS-B/TACC3 complex formation – biochemical, AlphaScreen, cherry-picked samples, confirmation (AID 651703); conditions: AlphaScreen His-ARNT PAS-B / GST-TACC3 binding, luminescence;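 also: TACC3 partner is the GST-tagged E629A mutant dimer; hits lower the signal meaning they disrupt ARNT binding to TACC3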

| SMILES | AC50 [µM] |
| --- | --- |
| Cc1ccccc1Nc1nc(N)nc(CN(C)Cc2ccccc2Cl)n1 | 53.5 |
| C[C@@H]1CN([C@@H](C)CO)C(=O)Cc2cc(NC(=O)Nc3cccc4ccccc34)ccc2O[C@H]1CN(C)Cc1ccc(Oc2ccccc2)cc1 | 18.4 |
| O=C(NN=Cc1c(O)ccc2ccccc12)c1ccncc1 | 9.94 |
| O=C(CCS(=O)(=O)c1ccc(F)cc1)Nc1nc(-c2ccccn2)cs1 | 6.22 |
| Cc1ccccc1CS(=O)(=O)Cc1ccc(C(=O)NCc2ccccn2)o1 | 31.6 |
| O=C(NCCCn1ccnc1)C(=O)NCC1OCCN1S(=O)(=O)c1cc(F)ccc1F (centres undefined) | 3 |
| O=S(=O)(Nc1cccc2cccnc12)c1ccc(S(=O)(=O)N2CCCC2)cc1 | 23.3 |
| CC1CCCC(C)N1/N=C/c1ccc([N+](=O)[O-])cc1 (centres undefined) | 17 |
| CCC(=O)NC(c1ccc(C)cc1)c1ccc2cccnc2c1O (centres undefined) | 4.71 |
| O=c1cc(C(F)(F)F)nc(-n2[nH]c3c(c2=O)CCCC3)[nH]1 | 28 |
| Nc1[nH]c(=O)nc(Nc2ccccc2)c1N=O | 21.2 |
| c1ccc(-c2nnc(-c3ccccn3)nc2NCC2CCOCC2)cc1 | < 0.5 |
| CCOC(=O)c1cnc(-n2[nH]c(C)cc2=O)[nH]c1=O | 0.754 |
| O=C(CSc1n[nH]c(-c2ccccn2)n1)Nc1ccc(Cl)cc1 | 2.08 |
| O=C(COc1ccc([N+](=O)[O-])cc1)Nc1nc(-c2ccccn2)cs1 | 6.57 |
| OCCN1CCN(C(=S)c2ccc(Cl)c(Cl)c2)CC1 | 33.2 |
| O=C(COC(=O)c1cccc(O)c1)Nc1nnc(-c2ccccc2)o1 | 16 |
| c1ccc(C2=Nn3c(nnc3-c3ccccn3)SC2)cc1 | 64.9 |
| O=C(N[C@H]1CC[C@H](CCn2cc(-c3ccccn3)nn2)O[C@H]1CO)c1cccnc1 | 24.8 |
| O=C(Oc1c(CN2CCOCC2)cc(Cl)c2cccnc12)c1ccccc1Br | 10.3 |
| CCN(C(=O)Cc1nc(N)n[nH]1)C1(C(=O)Nc2ccccc2)CCCCC1 | 20 |
| Cc1ccc(C)c(-n2c(SCC(N)=O)nnc2-c2ccccn2)c1 | 20 |
| c1ccc(-c2nnc(-c3ccccn3)nc2N2CCC(c3ccccc3)C2)cc1 (centres undefined) | 4.75 |

| SMILES | AC50 [µM] |
| --- | --- |
| Oc1ccc(/C=N/Nc2ncc(Br)cn2)c(O)c1 | 6.19 |
| CC(=O)Nc1cccc(C(=O)O)n1 | 12.2 |
| O=C(O)CCNc1cc(N2CCN(C(=O)c3ccco3)CC2)c2noc3c2c1C(=O)c1ccccc1-3 | 14.9 |
| N[C@H]1CC[C@H](CCn2cc(-c3ccccn3)nn2)O[C@@H]1CO | 1.03 |
| c1ccc(-c2nnc(-c3ccccn3)nc2NCCN2CCOCC2)cc1 | 0.593 |
| O=C(CSc1n[nH]c(=O)[nH]c1=O)N/N=C/c1ccccc1O | 43 |
| O=S(=O)(c1ccccc1)c1nc(-c2ccco2)oc1Nc1ccccc1 | 55.5 |
| CCC(=O)NC(C)c1cc(Cl)c2cccnc2c1O (centres undefined) | 4.72 |
| Cc1ccc(C)c(S(=O)(=O)N2CCN(Cc3ccc(O)c4ncccc34)CC2)c1 | 5.27 |
| CCOc1ccc(N(CC(=O)Nc2ccc(OC)cc2OC)S(=O)(=O)c2c(C)[nH]c(=O)[nH]c2=O)cc1 | 27.6 |
| C[C@@H](Nc1nc(-c2ccccn2)nnc1-c1ccccc1)c1ccccc1 | 0.77 |
| COc1ccc(C2C(C#N)=C(N)Oc3c2ccc2cccnc32)cc1OC (centres undefined) | 58.6 |
| Cc1ccc(S(=O)(=O)N2CCOCC2)cc1NC(=O)CNCc1ccccn1 | 6.07 |
| CCOc1cc(N2CCOCC2)c(OCC)cc1NC(=O)COc1cccc2cccnc12 | 20.3 |
| C[C@]12CC[C@H](O)CC1=CCC1C2CC[C@@]2(C)C1CC[C@@H]2NC(=O)[C@@H](N)Cc1cnc[nH]1 (some centres undefined) | 28.3 |
| c1ccc(-c2nnc(-c3ccccn3)nc2NCc2cccnc2)cc1 | < 0.5 |
| COc1cc(C2C(C#N)=C(N)Oc3n[nH]c(-c4ccccn4)c32)cc(OC)c1OC (centres undefined) | 19.7 |
| CC(C)(C)C1=CC(=Nc2ccccc2N)C=C(C(C)(C)C)C1=O | 1.47 |
| CCC(=O)NC(c1ccc(C)cc1)c1cc([N+](=O)[O-])c2cccnc2c1O (centres undefined) | 3.54 |
| CS(=O)(=O)c1cccc(-c2nnc(NC(=O)c3ccc(S(=O)(=O)N4CCCC4)cc3)o2)c1 | 22.5 |
| Cc1cc([N+](=O)[O-])cc(/C=N\NC(=O)C2COc3ccccc3O2)c1O (centres undefined) | 36.3 |
| CC(=O)NC(C)c1cc(Cl)c2cccnc2c1O (centres undefined) | 6.14 |
| Cc1ccc(NC(=O)CNCc2ccccn2)cc1S(=O)(=O)N(C)C | 8.68 |

| SMILES | AC50 [µM] |
| --- | --- |
| O=C(CSc1ccc(-c2ccccn2)nn1)NCc1ccc(F)cc1 | 6.65 |
| COc1ccc(OC)c(NC(=O)CSc2ccc3nnc(-c4ccccn4)n3n2)c1 | 34.3 |
| CCOC(=O)c1c(C)[nH]c(N=Nc2cccc(C)c2)c1C | 17.8 |
| O=C(C1CCCC1)N1C[C@@H]2[C@H](c3ccccc31)[C@H](CO)N2C(=O)Cc1ccccn1 | 67.4 |
| O=C(CSc1ccc(-c2ccccn2)nn1)N1CCCC1 | 3.05 |
| O=c1cc(CSc2ccc(Cl)cc2)nc(-c2ccccn2)[nH]1 | 3.69 |
| O=C(N[C@@H]1CC[C@H](CCn2cc(-c3ccccn3)nn2)O[C@H]1CO)c1ccc(F)cc1 | 14.3 |
| CCc1ccc2c(c1)C1(NN=C(c3ccc(C)cc3)S1)C(=O)N2 (centres undefined) | 1.52 |
| C[C@H](NC(=O)c1ccco1)C(=O)Nc1nc(-c2ccccn2)cs1 | 8.23 |
| Cc1ccccc1-n1c(SCC(=O)Nc2ccc3c(c2)OCO3)nnc1-c1ccccn1 | 15.6 |
| CC(C)C(=O)NC(c1ccco1)c1ccc2cccnc2c1O (centres undefined) | 0.957 |
| O=C(O)c1cn[nH]c1-n1cnnn1 | 40.6 |
| c1ccc(-c2nnc(-c3ccccn3)nc2Nc2cnc3ccccc3n2)cc1 | < 0.5 |
| Cn1c(-c2ccc3c(c2)OCO3)cnc1N | 39 |
| O=C(O)C1Nc2c(O)cc(Cl)c([N+](=O)[O-])c2C2C=CCC12 (centres undefined) | 28.1 |
| O=C(N/N=C/c1c(O)n(CCC2=CCCCC2)c(=O)[nH]c1=O)c1ccccc1 | 19.5 |
| O=C(O)c1ccc(C2CCCCC2)cn1 | 3.12 |
| Cc1csc(NC(=O)CSc2ccc(-c3ccccn3)nn2)n1 | 3.14 |
| Cc1ccccc1NC(=O)CSc1ccc(-c2ccccn2)nn1 | 3.47 |
| N#Cc1ccc(C(=O)Nc2nnc(-c3ccco3)o2)cc1 | 27.7 |
| CN1CCN(c2nc(-c3ccccn3)nnc2-c2ccccc2)CC1 | < 0.5 |
| c1ccc(-c2n[nH]c(-c3ccccn3)n2)nc1 | < 0.5 |
| Nc1nc(CN2CCCCCC2)nc(Nc2ccccc2)n1 | 59 |

| SMILES | AC50 [µM] |
| --- | --- |
| O=C(NCCCn1ccnc1)C(=O)NCC(c1ccco1)N1CCN(c2ccccc2)CC1 (centres undefined) | 6.85 |
| O=C(Nc1nc(-c2ccccn2)cs1)c1ccco1 | 2.17 |
| c1ccc(-c2ccc(CNc3nc(-c4ccccn4)nnc3-c3ccccc3)cc2)cc1 | 1.6 |
| COc1ccccc1-c1nnc(NC(=O)c2cccc(N3C(=O)CCC3=O)c2)o1 | 29 |
| Cc1ccc(S(=O)(=O)/N=C2\C=C(Nc3ccc(O)cc3)C(=O)c3ccccc32)cc1 | 3.43 |
| c1ccc(-c2cccc(CNc3nc(-c4ccccn4)nnc3-c3ccccc3)c2)cc1 | 2.28 |
| O=S(=O)(N[C@@H]1CC[C@@H](CCn2cc(-c3ccccn3)nn2)O[C@H]1CO)c1cccc(F)c1 | 21.5 |
| CN1CCN(C(c2ccccn2)c2cc(Cl)c3cccnc3c2O)CC1 (centres undefined) | 3.98 |
| CNCc1cn2cc(Cl)ccc2n1 | 21 |
| Cc1ccc(NC(=O)CN(C)C(=O)COc2cccc3cccnc23)cc1 | 41.7 |
| O=C(Nc1nc(-c2ccccn2)cs1)C12CC3CC(CC(O)(C3)C1)C2 | 6.45 |
| C/C=C/c1ccc([C@H]2[C@@H](CO)N(Cc3ccccn3)[C@H]2CNC(=O)CC)cc1 | 66.7 |
| O=C(CSc1ccc(-c2ccccn2)nn1)NC1CCCCC1 | 2.56 |
| CN1CCN(c2cc(-c3cc(O)c4ncccc4c3)ccn2)CC1 | 1.77 |
| Cc1cccc(CNc2nc(-c3ccccn3)nnc2-c2ccccc2)c1 | < 0.5 |
| Cc1ccc(-c2cnc(N)n2C)cc1C | 41.1 |
| C[C@@H]1CN([C@H](C)CO)C(=O)c2cc(NC(=O)Nc3ccc(C(F)(F)F)cc3)ccc2O[C@@H](C)CCCCO[C@H]1CN(C)Cc1ccc2c(c1)OCO2 | 64.9 |
| Brc1ccc(-c2nn3c(-c4ccccn4)nnc3s2)o1 | 9.12 |
| O=C(N/N=C/c1cc(Br)ccc1O)C(c1ccncc1)N1CCOCC1 (centres undefined) | 13.4 |
| O=C(N/N=C/C=C/c1ccco1)c1cnccn1 | 55.4 |
| Cc1cccc(Nc2nc(-c3ccccn3)cs2)n1 | 6.95 |
| Oc1cc(NCc2ccc(F)cc2)cc2cccnc12 | 8.9 |
| Cc1ccccc1Nc1nnc(SCC(=O)NC(=O)NCc2ccco2)s1 | 71.2 |

| SMILES | AC50 [µM] |
| --- | --- |
| CC(=O)c1cccc(NC(=O)CSc2ccc(-c3ccccn3)nn2)c1 | 3.21 |
| O=c1[nH][nH]c(=O)c2nc(Nc3ccccc3)ncc12 | 66.1 |
| O=C(Nc1nc(-c2ccccn2)cs1)C1COc2ccccc2O1 (centres undefined) | 5.46 |
| O=C(Nc1nnc(-c2ccc(F)cc2)o1)c1ccco1 | 37 |
| Oc1cc(-c2ccncc2)cc2cccnc12 | 0.771 |
| NCCc1cnc[nH]1 | 23.1 |
| c1ccc(-c2cn3c(n2)CCc2ccc4cccnc4c2-3)cc1 | 21.2 |
| Cc1ccc(CNc2nc(-c3ccccn3)nnc2-c2ccccc2)cc1 | 0.736 |
| COc1ccccc1CNC(=O)CSc1ccc(-c2ccccn2)nn1 | 9.48 |
| COc1cc(CNCc2ccccn2)ccc1OCc1c(Cl)cccc1Cl | 43.4 |
| CCOC(=O)C(NCc1ccccn1)(NC(=O)c1cccnc1)C(F)(F)F (centres undefined) | 29.8 |
| O=C(NC[C@H]1[C@@H](c2ccccc2)[C@@H](CO)N1Cc1ccccn1)C1CCC1 | 51.5 |
| COc1ccccc1-c1nnc(NC(=O)Cc2ccccc2)o1 | 35 |
| COc1ccc(NC(=O)N[C@@H]2CC[C@@H](CCn3cc(-c4ccccn4)nn3)O[C@H]2CO)cc1 | 28.6 |
| Oc1cc(Nc2ccncc2)cc2cccnc12 | 0.676 |
| Oc1c(C(Nc2cccc(C(F)(F)F)c2)c2ccncc2)ccc2cccnc12 (centres undefined) | 0.575 |
| O=C(N[C@@H]1CC[C@@H](CCn2cc(-c3ccccn3)nn2)O[C@H]1CO)c1ccccc1 | 9.23 |
| CNc1nc(-c2ccccn2)nnc1-c1ccccc1 | < 0.5 |
| NC1=CC(=O)C(=O)c2ccccc21 | 38.9 |
| CCC(C)Nc1nc(-c2ccccn2)nc2ccccc12 (centres undefined) | 8.57 |
| CCCCCc1cc(=O)oc2c(C(CCN(CC)CC)c3ccc(N(C)C)cc3)c(OC)cc(OC)c12 (centres undefined) | 5.02 |
| c1ccc(CNc2nc(-c3ccccn3)nnc2-c2ccccc2)cc1 | < 0.5 |
